Several values for one entry are separate records, joined by “and”; a condition that tells them apart may be missing. Identical values can stand only once. Like-named read-outs stand apart in the source and are kept apart here.
Tests used:
[1] = system: TSST-1 toxin produced by S. aureus; assay type: cell-based, Staphylococcus aureus MN 8
[2] = system: Staphylococcus aureus MN 8; assay type: cell-based
[3] = system: Lactobacillus crispatus (LMG 12005); assay type: cell-based
[4] = system: Lactobacillus gasseri (ATCC 9857); assay type: cell-based
[5] = system: Lactobacillus iners (LMG 18916); assay type: cell-based

Row | SMILES | % TSST-1 Change (ug/ml) vs. control [1] | % TSST-1 Change (ug/ml/mM) vs. control [1] | Change in S. Aureus CFU/ml vs. control [2] | also measured
1 | CCCCCCCCCCCCCCCCCC(=O)O [Calcium stearate, calcium stearate] | 65% and 62% | 6.6% and 0.6% | – | –
2 | [Cl-].[Cl-].[Mg+2] [Magnesium chloride] | 47% | – | ≦1 log | –
3 | [Cl][Cu][Cl] [Copper chloride] | – | – | >3 log | –
4 | O=C1O[C@H]([C@@H](O)CO)C(O)=C1O [Calcium ascorbate, calcium ascorbate] | – | – | >2 log | growth of S. aureus relative to controls [2]: virtually eliminate the growth
5 | CC(O)C(=O)[O-].CC(O)C(=O)[O-].[Ca+2] (stereo not shown) [Calcium lactate] | 49% and 89% and 90% | 5.6% and 1.7% | <1 log | Change in L. cripatus vs. control [3]: <1 log; Change in L. gasseri vs. control [4]: <1 log; Change in L. iners vs. control [5]: <1 log
6 | [Ca+2].[Cl-].[Cl-] [Calcium chloride] | 82% | 2.5% and 1.1% | ≦1 log | % TSST-1 Change (ug/ml) vs. control ([1]; 18-20 h, 37° C.): 37%
7 | [Cl-].[Cl-].[Zn+2] [Zinc chloride] | – | – | >2 log | –
8 | [Cl][Fe][Cl] [Ferrous chloride] | – | – | >2 log | –
